Test results published in patent publication US20230000813A1, “COMPOUND FOR THE TREATMENT OF BOVINE OR SWINE RESPIRATORY DISEASE” (Intervet Inc., priority 2016, published 2023).
Converted amounts (≈) assume the structure as drawn. “And” between values parts separate entries of the source, which are not always exact repeats. Identical values can stand only once. Like-named read-outs stand apart in the source and are kept apart here.

Columns and labels:
[1] = tested on: naturally occurring bovine respiratory disease (BRD); test: Treatment of naturally occurring bovine respiratory disease under U.S. feedlot conditions (Example 11); format: in vivo, weaned beef cattle calves
Text: The effectiveness and safety of compound 329 for the treatment of naturally occurring bovine respiratory disease (BRD) under typical U.S. feedlot conditions when administered subcutaneously was investigated. The therapeutic efficacy of the two antibacterials was compared to a negative control group (sterile saline) and a positive control group (Nuflor® Injectable Solution).
Weaned beef cattle calves (crossbreds of Angus, Charolais and Limousin) were enrolled in the study and were allocated to groups of 20 animals per treatment group. Calves were enrolled in the study with body weights that ranged from 123 to 262 kg.
The bovine respiratory disease observed in this 10-day natural infection study was moderate to severe across the treatment groups and typical of that observed in commercial feed yards in the U.S.
Animals were dosed subcutaneously once on the day of enrollment (Day 0) with compound 329 or the control groups. Compound 329 was dosed at 10 mg/kg body weight. Nuflor® was dosed at 40 mg/kg body weight. Sterile saline was dosed at 2 mL/15 kg body weight.

[2] = Plasma and tissue concentrations in infected calves (Example 10); format: in vivo, cattle calves; conditions: individual animals and mean; for Concentration, Plasma 0 h: predose
[3] = tested on: Mannheimia haemolytica MH 6357 (M7/2, reference strain, cattle infection strain); test: MIC, broth-microdilution (CLSI VET01-A4); format: cell-based
In short: (§1)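 Visual no-turbidity endpoint over twofold compound dilutions in microdilution trays, interpreted according to CLSI VET01-S3.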

[4] = tested on: Pasteurella multocida PM 6391 (ATCC 43137, reference strain); test: MIC, broth-microdilution (CLSI VET01-A4); format: cell-based
In short: as §1

[5] = tested on: Mannheimia haemolytica MH 10720 (154, BRD field isolate); test: MIC, broth-microdilution (CLSI VET01-A4); format: cell-based
In short: as §1

[6] = tested on: Mannheimia haemolytica MH 6374 (ATCC 33396, reference strain); test: MIC, broth-microdilution (CLSI VET01-A4); format: cell-based
In short: as §1

[7] = tested on: Pasteurella multocida PM 12080 (IV102277-0093, BRD field isolate); test: MIC, broth-microdilution (CLSI VET01-A4); format: cell-based
In short: as §1

[8] = tested on: Mannheimia haemolytica MH 12587 (1071, BRD field isolate, macrolide-resistance: erm+, E+); test: MIC, broth-microdilution (CLSI VET01-A4); format: cell-based
In short: as §1

[9] = tested on: 20 isolates of Bordetella (B.) bronchiseptica; test: MIC50/MIC90, broth-microdilution, European respiratory tract isolates; format: cell-based
Procedure: (§2) The in vitro activity of compounds against 20 isolates of Actinobacillus (A.) pleuropneumoniae, 20 of Bordetella (B.) bronchiseptica, 20 of Histophilus (H.) somni, 40 of Mannheimia (M.) haemolytica and 40 of Pasteurella (P.) multocida collected in different European countries were determined. All bacteria were isolated from the respiratory tract of swine and cattle suffering from respiratory disease. All isolates were epidemiologically unrelated as specified by the different suppliers.
(§3) The minimum inhibitory concentrations (MIC) of compounds according to the invention were determined by the broth-microdilution method according to CLSI document VET01-A4.
(§4) Microdilution trays containing a doubling dilution series of the test compounds were used for the tests.
(§5) The MIC results were interpreted according to the CLSI documents VET01-S3. The lowest concentration of compound at which no visible growth (i.e. no turbidity) detected by the unaided eye was recorded as the MIC.

[10] = tested on: 40 isolates of Mannheimia (M.) haemolytica; test: as above; format: cell-based
Procedure: as §2, §3, §4, §5

[11] = tested on: 20 isolates of Histophilus (H.) somni; test: as above; format: cell-based
Procedure: as §2, §3, §4, §5

[12] = tested on: 40 isolates of Pasteurella (P.) multocida; test: as above; format: cell-based
Procedure: as §2, §3, §4, §5

[13] = tested on: 20 isolates of Actinobacillus (A.) pleuropneumoniae; test: as above; format: cell-based
Procedure: as §2, §3, §4, §5

[14] = D 0 to D 10, 20 calves per group, C. 329 10 mg/kg, Nuflor 40 mg/kg SC once
[15] = natural BRD, 20 calves per group, SC once on Day 0: C. 329 10 mg/kg, Nuflor 40 mg/kg
[16] = natural BRD, calves removed before D 10 included, C. 329 10 mg/kg, Nuflor 40 mg/kg SC once
[17] = SC single 5 mg/kg (35% Cavitron), listed as C. 239, 5 mg/kg
[18] = SC single 10 mg/kg (C 231 in 10% Poloxamer 188; C 329 in 35% Cavitron), 10 mg/kg

CC(C)(N)C(NC(=O)c1ccc(C#Cc2ccc(CNC3CC3)cc2)cc1)C(=O)NO (centres unmarked) [C. 329]
Efficacy in a field like setting, naturally occurring BRD ([1]; 10 mg/kg SC once, compared to saline and Nuflor, conclusion in words): demonstrated
Mortalities during the study ([1]; 10-day natural BRD study, C. 329 10 mg/kg, Nuflor 40 mg/kg SC once): 5%
Removals from the study, Percentage [1, 14]: 5%
Removals from the study, Total [1, 14]: 1
Removals from the study, D 0 [1, 15]: 0
Removals from the study, D 1 [1, 15]: 0
Removals from the study, D 2 [1, 15]: 0
Removals from the study, D 3 [1, 15]: 0
Removals from the study, D 4 [1, 15]: 0
Removals from the study, D 5 [1, 15]: 0
Removals from the study, D 6 [1, 15]: 0
Removals from the study, D 7 [1, 15]: 0
Removals from the study, D 8 [1, 15]: 0
Removals from the study, D 9 [1, 15]: 1
Removals from the study, D 10 [1, 15]: 0
Average Body weight on D 0 ([1]; natural BRD, day of enrollment, C. 329 10 mg/kg, Nuflor 40 mg/kg SC once): 401.2 lb
Average Body weight on last day in study [1, 16]: 406.3 lb
Average daily body weight gain [1, 16]: 0.5 lb
daily body weight gains over the study period ([1]; natural BRD, in words): positive daily body weight gains
Concentration, Plasma 0.5 h [2, 17]: 1140 ng/mL and 830 ng/mL and 945 ng/mL
Concentration, Plasma 2 h [2, 17]: 327 ng/mL and 326 ng/mL and 221 ng/mL
Concentration, Plasma 4 h [2, 17]: 146 ng/mL and 210 ng/mL and 130 ng/mL
Concentration, Plasma 6 h [2, 17]: 110 ng/mL and 156 ng/mL and 78.7 ng/mL
Concentration, Plasma 24 h [2, 17]: 32.2 ng/mL and 35.1 ng/mL and 22.8 ng/mL
Concentration, Plasma 48 h [2, 17]: 16.1 ng/mL and 18.2 ng/mL and 12.8 ng/mL
Concentration, Tissue (48 h) ELF [2, 17]: 91.8 ng/mL and 214 ng/mL and 324 ng/mL
Concentration, Tissue (48 h) Kidney [2, 17]: 8890 ng/mL and 3990 ng/mL and 4940 ng/mL
Concentration, Tissue (48 h) Liver [2, 17]: 2060 ng/mL and 1550 ng/mL and 1740 ng/mL
Concentration, Tissue (48 h) Lung [2, 17]: 1560 ng/mL and 1320 ng/mL and 1360 ng/mL
Concentration, Tissue (48 h) Muscle [2, 17]: 53.3 ng/mL and 45.7 ng/mL and 54.4 ng/mL
Concentration, Plasma 0.5 h [2, 18]: 1160 ng/mL and 1610 ng/mL and 1400 ng/mL
Concentration, Plasma 2 h [2, 18]: 476 ng/mL and 439 ng/mL and 550 ng/mL
Concentration, Plasma 4 h [2, 18]: 310 ng/mL and 267 ng/mL and 282 ng/mL
Concentration, Plasma 6 h [2, 18]: 210 ng/mL and 172 ng/mL and 174 ng/mL
Concentration, Plasma 24 h [2, 18]: 69.1 ng/mL and 42.9 ng/mL and 57.5 ng/mL
Concentration, Plasma 48 h [2, 18]: 49.3 ng/mL and 38.5 ng/mL and 32.4 ng/mL
Concentration, Tissue (48 h) ELF [2, 18]: 1090 ng/mL and 372 ng/mL and 250 ng/mL
Concentration, Tissue (48 h) Kidney [2, 18]: 6570 ng/mL and 20800 ng/mL and 4620 ng/mL
Concentration, Tissue (48 h) Liver [2, 18]: 3930 ng/mL and 3650 ng/mL and 2730 ng/mL
Concentration, Tissue (48 h) Lung [2, 18]: 2780 ng/mL and 3370 ng/mL and 2790 ng/mL
Concentration, Tissue (48 h) Muscle [2, 18]: 75.3 ng/mL and 68.5 ng/mL and 85.9 ng/mL
Concentration, Plasma 0 h ([2]; SC single 5 mg/kg (35% Cavitron)): BLQ
Concentration, Plasma 0 h ([2]; SC single 10 mg/kg (C 231 in 10% Poloxamer 188; C 329 in 35% Cavitron)): BLQ
MIC ([3]; Mannheimia haemolytica MH 6357, read-out: MIC MH 6357): 1.6 µM
MIC ([3]; strain MH 6357): 0.5 µg/mL
MIC PM 6391 ([4]; Pasteurella multocida PM 6391): <=0.1 μM
MIC ([4]; strain PM 6391): 0.063 µg/mL (≈ 0.15 µM)
MIC ([5]; Mannheimia haemolytica MH 10720, read-out: MIC MH 10720): 0.4 µM
MIC ([5]; strain MH 10720): 0.5 µg/mL
MIC ([6]; Mannheimia haemolytica MH 6374, read-out: MIC MH 6374): 0.8 µM
MIC ([6]; strain MH 6374): 0.25 µg/mL
MIC PM 12080 ([7]; Pasteurella multocida PM 12080): <=0.1 μM
MIC ([7]; strain PM 12080): 0.032 µg/mL (≈ 0.0761 µM)
MIC MH 12587 ([8]; Mannheimia haemolytica MH 12587, macrolide-resistant): 1.6 µM (≈ 0.673 µg/mL)
MIC ([8]; strain MH 12587, macrolide-resistant): 0.5 µg/mL (≈ 1.19 µM)
MIC50 [9]: 2 µg/mL (≈ 4.76 µM)
MIC90 [9]: 4 µg/mL (≈ 9.51 µM)
MIC50 [10]: 0.5 µg/mL (≈ 1.19 µM)
MIC90 [10]: 1 µg/mL (≈ 2.38 µM)
MIC50 [11]: 0.25 µg/mL (≈ 0.595 µM)
MIC90 [11]: 0.25 µg/mL (≈ 0.595 µM)
MIC50 [12]: 0.032 µg/mL (≈ 0.0761 µM)
MIC90 [12]: 0.032 µg/mL (≈ 0.0761 µM)
MIC50 [13]: 0.5 µg/mL (≈ 1.19 µM)
MIC90 [13]: 0.5 µg/mL (≈ 1.19 µM)
